Where two headings read alike, the source gives them in different places.
Experiments:
GluN1-1a/GluN2A NMDAR = molecular target: T1, GluN1-1a/GluN2A NMDAR (Rattus norvegicus, UniProt P35439+Q00959); test: TEVC electrophysiology of Xenopus oocytes expressing GluN1-1a/GluN2A; assay type: cell-based
T1 construct: expressed in transfected cells; host or cells: Xenopus laevis oocytes, injected with cRNA or plasmid DNA (pRK7 or pBluescript SK(-))
Procedure: (§1) Ovaries of mature female Xenopus laevis were supplied by the European Xenopus Resource Centre (University of Portsmouth, Portsmouth, UK). Upon receipt, oocytes were first separated with 1 mg/mL collagenase (Type 1A from Clostridium histolyticum; Sigma, Poole, UK) in Ca^2+-free Barth’s gentamicin–theophylline–pyruvate (GTP) solution (96 mM NaCl, 2 mM KCl, 1 mM MgCl2, 5 mM HEPES, 2.5 mM pyruvic acid, 0.5 mM theophylline, 50 μg/mL gentamicin, pH 7.5) on a shaker for approximately 45 min at room temperature. Oocytes were then rinsed with Ca^2+-free GTP solution six to eight times until a clear solution was obtained and incubated in normal Barth’s GTP solution (Ca^2+-free GTP with inclusion of 1.8 mM CaCl2) at ~4 °C for at least half an hour prior to microinjection.
(§2) Healthy oocytes at developmental stages IV and V were injected with 50 nL of cRNA (into the cytoplasm) or plasmid DNA (into the nucleus) at a concentration of ~100 ng/μL using a Nanolitre 2010 Injector (World Precision Instruments, Hitchin, UK). cRNA or DNA plasmids encoding the rat NMDAR subunits GluN1-1a and GluN2A or GluN1-1a and GluN2B were mixed at ratios of 1:1 (by weight) for injection. The cRNA was synthesized from linearized plasmid DNA (pRK7 or pBluscript SK(−)) containing the GluN-encoding genes using an Invitrogen mMessage mMachine kit (Thermo Fisher Scientific, Loughborough, UK). Injected oocytes were kept in normal Barth’s GTP solution at 19 °C for two to three days for expression of NMDAR subunits before recordings.
(§3) TEVC electrophysiology was used to assess the direct effects of CPF on NMDARs containing GluN1-1a and GluN2A or GluN1-1a and GluN2B subunits expressed in Xenopus oocytes. Pulled borosilicate glass capillaries (GC150TF-10, Harvard Apparatus, Cambridge, UK) (resistances 0.5–2 MΩ) were filled with 3 M KCl and used to impale injected oocytes for recording. Injected oocytes were continuously perfused with Mg^2+-free Xenopus Ringer solution (95 mM NaCl, 2 mM KCl, 2 mM CaCl2, 5 mM HEPES, pH 7.5) at a flow rate of 5 mL/min, with test compounds applied using a Valvelink 8 gravity-fed perfusion system (Automate Scientific, Berkeley, CA, USA). Recordings were performed at 20–25 °C and oocytes were clamped at −75 mV holding potential in all experiments. Output current responses were transferred to a PC via an analogue-to-digital (A/D) converter (National Instruments PCI-6014, Austin, TX, USA) and recorded in WinEDR V3.2.7 software (John Dempster, Strathclyde Electrophysiology Software, Strathclyde Institute of Pharmacy and Biomedical Sciences, University of Strathclyde, Strathclyde, UK). Current changes in response to NMDA/glycine when applied with CPF were normalized to the control current without CPF.
(§4) Results were expressed as means ± standard error of the mean (SEM). Statistical analysis was undertaken between concentrations using an independent samples Kruskal–Wallis test across cell culture conditions using IBM SPSS statistical software (version 26.0). […] EC50 and maximum response values were obtained using non-linear regression by fitting a four-parametric logistic equation to concentration–response plots in GraphPad Prism 10 (GraphPad Software Inc., La Jolla, CA, USA):(1) Y=Min+Max−Min/10^LogEC50−XS+1 where Y is the response to the agonist, X is the log10 concentration of the agonist, EC50 is the concentration of agonist that produces a half-maximum activation response, and S is the Hill slope. EC50s and maximum responses were compared for significant differences using an extra sum of squares F-test in GraphPad Prism 10.

GluN1-1a/GluN2B NMDAR = molecular target: T2, GluN1-1a/GluN2B NMDAR (Rattus norvegicus, UniProt P35439+Q00960); test: TEVC electrophysiology of Xenopus oocytes expressing GluN1-1a/GluN2B; assay type: cell-based
T2 construct: expressed in transfected cells; host or cells: Xenopus laevis oocytes, injected with cRNA or plasmid DNA (pRK7 or pBluescript SK(-))
Procedure: as §1, §2, §3, §4

[1] = test system: 4-week differentiated ReNcell CX cells; test: Three-color fluorescence (FDA/PI) live, dead and apoptotic cell staining; assay type: cell-based, human; settings: 24 h
Procedure: (§5) The human neural progenitor ReNcell CX cell line (Merck Millipore, Watford, UK) is a neural stem cell line derived from the developing human fetal brain cortex ([…]) at 14 weeks of gestational age. The ReNcell CX cell line was expanded on laminin-coated flasks (20 μg/mL; Sigma-Aldrich, Poole, UK) in ReNcell Neural Stem Cell (NSC) Maintenance Medium (Merck Millipore, Watford, UK) containing fresh EGF (20 ng/mL; Merck Millipore, Watford, UK) and FGF-b (20 ng/mL; Merck Millipore, Watford, UK). Cultures were incubated at 37 °C in a 95% humidified atmosphere of 5% CO2. ReNcell CX neural progenitor cells were differentiated into a co-culture of neurons, astrocytes, and oligodendrocytes by replacing the complete ReNcell CX medium with EGF- and FGF-b-free medium; with the differentiation medium refreshed every 2 days throughout the 4-week differentiation period.
(§6) A three-color fluorescence assay was performed as described by Kim et al.. Non-fluorescent fluorescein diacetate (FDA) permeates into active and intact cells and is hydrolyzed by intracellular esterases into a highly fluorescent green fluorescein when illuminated with a fluorescein isothiocyanate (FITC; blue) excitation filter set (emission wavelength […]). Propidium iodide (PI) is a nucleic acid dye that cannot permeate intact cell membranes and selectively stains the nuclei of dead cells or cells in late apoptotic stages. Stained nuclei omit red fluorescence under rhodamine (green) excitation (emission wavelength 650 nm). Live–dead cell assays followed the protocol described by Jones and Senft. The cells were observed using a Nikon TS100 inverted microscope (Nikon Europe B.V., Amstelveen, The Netherlands) with incident fluorescence optics. Images were captured at 200× magnification and digitalized with a Moticam 2300 camera (Roper Scientific Inc., Duluth, GA, USA; resolution 3 MP).
(§7) Live/dead cell staining was analyzed quantitatively. The number of PI-stained nuclei was counted manually using the cell counting option in the ImageJ software (V2 Fiji-win64, University of Nottingham).

[2] = cited from earlier work
[3] = Three-color fluorescence (FDA/PI) live, dead and apoptotic cell staining; assay type: cell-based, human; settings: human, 14 μM CPF, control 96.4%, p < 0.001, read-out: cell viability (live cells)
Procedure: as §5, §6, §7

[4] = 10 μM CPF applied directly, −75 mV

T1 sequence (Q00959 20-1464 limits assumed, other chains not shown): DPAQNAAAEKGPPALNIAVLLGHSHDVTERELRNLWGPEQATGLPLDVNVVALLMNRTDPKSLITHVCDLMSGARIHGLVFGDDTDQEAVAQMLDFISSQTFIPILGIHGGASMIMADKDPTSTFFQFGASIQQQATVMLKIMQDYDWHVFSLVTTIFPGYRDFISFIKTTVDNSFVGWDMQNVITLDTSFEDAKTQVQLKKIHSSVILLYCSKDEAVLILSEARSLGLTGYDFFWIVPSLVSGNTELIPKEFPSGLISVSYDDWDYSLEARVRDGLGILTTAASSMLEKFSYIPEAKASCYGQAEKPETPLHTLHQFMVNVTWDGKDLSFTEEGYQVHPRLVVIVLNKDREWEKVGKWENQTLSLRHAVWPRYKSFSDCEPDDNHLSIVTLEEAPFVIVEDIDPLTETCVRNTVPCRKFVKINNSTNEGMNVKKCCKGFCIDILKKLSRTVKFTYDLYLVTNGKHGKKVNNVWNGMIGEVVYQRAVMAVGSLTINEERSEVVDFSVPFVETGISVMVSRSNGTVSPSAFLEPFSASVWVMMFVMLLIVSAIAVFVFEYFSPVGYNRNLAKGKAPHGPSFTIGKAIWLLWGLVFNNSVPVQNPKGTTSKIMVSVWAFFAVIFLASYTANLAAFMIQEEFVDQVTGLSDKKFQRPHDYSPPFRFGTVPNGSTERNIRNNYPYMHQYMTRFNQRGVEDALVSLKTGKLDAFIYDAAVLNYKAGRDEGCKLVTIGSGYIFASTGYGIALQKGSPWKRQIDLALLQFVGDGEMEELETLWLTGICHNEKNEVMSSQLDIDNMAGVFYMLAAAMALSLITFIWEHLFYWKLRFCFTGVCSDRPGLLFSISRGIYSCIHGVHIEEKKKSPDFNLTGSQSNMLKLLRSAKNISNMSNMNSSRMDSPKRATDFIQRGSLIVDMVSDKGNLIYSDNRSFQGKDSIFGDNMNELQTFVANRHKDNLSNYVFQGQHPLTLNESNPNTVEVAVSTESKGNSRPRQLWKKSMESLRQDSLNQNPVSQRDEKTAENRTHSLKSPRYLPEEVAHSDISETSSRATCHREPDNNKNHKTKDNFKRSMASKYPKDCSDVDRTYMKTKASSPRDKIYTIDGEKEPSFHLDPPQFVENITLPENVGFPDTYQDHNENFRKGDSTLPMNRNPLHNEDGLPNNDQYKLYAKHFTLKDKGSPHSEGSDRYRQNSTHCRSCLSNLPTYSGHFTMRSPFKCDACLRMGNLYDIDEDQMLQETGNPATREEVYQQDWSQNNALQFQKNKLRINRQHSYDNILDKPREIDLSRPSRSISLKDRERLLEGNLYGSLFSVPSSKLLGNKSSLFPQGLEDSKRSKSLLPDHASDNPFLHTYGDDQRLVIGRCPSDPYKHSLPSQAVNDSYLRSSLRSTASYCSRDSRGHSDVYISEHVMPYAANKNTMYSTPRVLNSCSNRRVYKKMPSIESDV
T2 sequence (Q00960 27-1482, other chains not shown): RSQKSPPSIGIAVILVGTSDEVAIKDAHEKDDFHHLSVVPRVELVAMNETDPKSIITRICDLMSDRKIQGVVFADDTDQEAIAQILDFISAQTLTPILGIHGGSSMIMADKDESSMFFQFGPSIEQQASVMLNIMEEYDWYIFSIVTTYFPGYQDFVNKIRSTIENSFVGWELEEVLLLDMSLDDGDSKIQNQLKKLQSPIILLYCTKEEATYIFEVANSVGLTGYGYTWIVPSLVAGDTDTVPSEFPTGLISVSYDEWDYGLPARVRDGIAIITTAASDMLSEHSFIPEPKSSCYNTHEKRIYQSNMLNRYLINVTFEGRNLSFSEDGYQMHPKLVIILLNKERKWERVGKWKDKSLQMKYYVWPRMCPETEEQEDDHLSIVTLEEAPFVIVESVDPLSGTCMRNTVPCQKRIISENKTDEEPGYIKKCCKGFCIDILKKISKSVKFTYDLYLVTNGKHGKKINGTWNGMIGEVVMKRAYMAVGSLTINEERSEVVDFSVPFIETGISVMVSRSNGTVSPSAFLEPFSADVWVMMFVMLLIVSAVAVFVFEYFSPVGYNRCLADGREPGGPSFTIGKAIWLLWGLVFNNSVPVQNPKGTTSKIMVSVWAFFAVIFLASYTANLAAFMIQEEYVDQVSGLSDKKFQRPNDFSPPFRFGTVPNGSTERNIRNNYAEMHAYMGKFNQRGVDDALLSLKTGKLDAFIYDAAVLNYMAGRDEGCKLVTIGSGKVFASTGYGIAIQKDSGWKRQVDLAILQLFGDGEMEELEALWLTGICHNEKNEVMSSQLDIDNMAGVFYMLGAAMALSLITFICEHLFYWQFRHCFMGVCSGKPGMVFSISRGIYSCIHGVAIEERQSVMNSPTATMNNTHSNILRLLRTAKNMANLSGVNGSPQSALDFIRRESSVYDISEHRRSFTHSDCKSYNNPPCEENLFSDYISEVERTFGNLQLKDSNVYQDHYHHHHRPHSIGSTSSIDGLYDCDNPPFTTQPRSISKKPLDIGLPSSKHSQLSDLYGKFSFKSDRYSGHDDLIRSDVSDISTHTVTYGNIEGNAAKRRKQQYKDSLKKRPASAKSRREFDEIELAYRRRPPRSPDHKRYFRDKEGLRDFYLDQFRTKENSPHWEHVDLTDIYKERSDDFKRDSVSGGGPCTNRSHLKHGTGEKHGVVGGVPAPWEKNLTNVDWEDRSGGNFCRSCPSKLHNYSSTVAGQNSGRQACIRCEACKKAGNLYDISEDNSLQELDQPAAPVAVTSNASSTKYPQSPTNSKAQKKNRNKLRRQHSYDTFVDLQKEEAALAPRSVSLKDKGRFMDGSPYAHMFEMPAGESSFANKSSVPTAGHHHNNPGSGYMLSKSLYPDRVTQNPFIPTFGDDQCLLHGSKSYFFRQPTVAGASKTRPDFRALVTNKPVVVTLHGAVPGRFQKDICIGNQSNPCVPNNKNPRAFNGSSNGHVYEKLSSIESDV

## C[C@]12N[C@H](Cc3ccccc31)c1ccccc12 [MK-801, reference compound]
GluN1-1a/GluN2A NMDAR; 10 μM MK-801 with 1 μM CPF, 10 μM NMDA, 10 μM Gly, −75 mV
  antagonism of CPF-induced potentiation of NMDA/glycine-evoked current: completely blocked

## CC(C(O)c1ccc(O)cc1)N1CCC(Cc2ccccc2)CC1 (stereo not drawn) [IFN, ifenprodil, reference compound]
GluN1-1a/GluN2B NMDAR; 100 μM IFN with 1 μM CPF, 10 μM NMDA, 10 μM Gly, −75 mV
  antagonism of CPF-induced potentiation of NMDA/glycine-evoked current: completely blocked
[1]; 25 μM IFN co-administered with 14 μM CPF, p < 0.001
  effect on CPF-induced decrease in cell viability: attenuated the CPF-induced decrease in ReNcell CX cell viability

## CN[C@H](CC(=O)O)C(=O)O [NMDA, N-methyl-D-aspartate]
GluN1-1a/GluN2A NMDAR; 10 μM glycine, absence of CPF
  maximum response (percentage of the response to 1 mM NMDA): 102%
GluN1-1a/GluN2A NMDAR; 10 μM glycine, absence of CPF, n = 5, read-out: NMDA EC50
  EC50: 57.9 µM
GluN1-1a/GluN2B NMDAR; 10 μM glycine, absence of CPF
  maximum response (percentage of the response to 1 mM NMDA): 103%
GluN1-1a/GluN2B NMDAR; 10 μM glycine, absence of CPF, n = 6, read-out: NMDA EC50
  EC50: 70 µM

## CCOP(=S)(OCC)Oc1nc(Cl)c(Cl)cc1Cl [CPF, O,O-diethyl O-(3,5,6-trichloropyridin-2-yl) phosphorothioate]
GluN1-1a/GluN2A NMDAR
  EC50: ~0.04 µM
GluN1-1a/GluN2A NMDAR; 1 μM CPF co-applied with 10 μM glycine, n = 3, p < 0.05
  enhancement of current evoked by 10 μM glycine: ~ 1.7 fold
GluN1-1a/GluN2A NMDAR; [4]
  direct activation by CPF alone: resulted in NMDAR-mediated currents
[2]; conversion of 100 μg/kg/day as printed
  no observed adverse effect level (NOAEL), as concentration: ≈ 285 nM
[2]; set by European Food Safety Authority
  no observed adverse effect level (NOAEL): 100 µg/kg/day
GluN1-1a/GluN2B NMDAR
  EC50: ~0.055 µM
GluN1-1a/GluN2B NMDAR; [4]
  direct activation by CPF alone: resulted in NMDAR-mediated currents
GluN1-1a/GluN2B NMDAR; 10 μM CPF co-applied with 100 μM NMDA, n = 5, p < 0.05
  enhancement of current evoked by 100 μM NMDA: ~ 8.2 fold
[1]; 14 μM CPF
  cells transitioned to apoptosis: 18.7%
  dead cells: 3.91%
[3]
  viability at 24 h, 14 μM: 71.4%
